Patent publication US11530216B2, “Deuterated colony stimulating factor-1 receptor (CSF-1R) inhibitors” (Genzyme Corporation, priority 2020, dated 2022)
Read-outs that look alike come from different tables or passages of the source.

Assays:
primary murine microglia = test: Immunostaining of primary microglia (Iba1+ area, DAPI+ nuclei) after CSF-1 stimulation; assay type: cell-based, mouse; settings: Mus musculus, Microglia
Description: Primary mouse microglia were suspended at a concentration of 5×10^5 cells/mL and 100 μL of this cell suspension was added to the inner 60 wells of three 96-well plates. Microglia cells were allowed to rest overnight at 37° C., 5% CO2. […] Cells were then stimulated with 100 ng/mL recombinant mouse CSF-1 for 24 hours. After stimulation, the culture supernatant was removed from each well and aliquoted into two different 96-well plates for subsequent ELISA assays. Plates were fixed with 4% PFA for future immunocytochemistry analysis. Following the stimulation, cells were fixed with 4% PFA for 20 minutes at room temperature. Cells were then rinsed in PBS, washed 3×5 minutes in 0.2% PBT (0.2% Triton X-100 in PBS) and blocked with 10% donkey serum/0.2% PBT for 1 hour at room temperature. […] After staining, plates were imaged on the IN Cell Analyzer 2200 with 9 fields of view acquired per well. […] A one-way ANOVA was used to determine the statistical significance of differences between samples. […] Following a microglial stimulation, immunocytochemistry was completed with Iba1, Ki67, and DAPI to determine microglial morphology, proliferative state, and number. InCell imaging microsope and analysis software was used to quantify Iba1^+ area, and the number of DAPI^+ nuclei within the cultures.

[1] = tested on: MCP-1 production in primary mouse microglia (wild type, SOD1); test: MCP-1 ELISA, wild-type and SOD1 primary microglia, CSF-1 stimulation; assay type: cell-based; settings: CSF-1 stimulation, 50, 100, 200 nM, wild type and SOD1 cells
Description: The impact of a deuterated CSF-1R inhibitor of this disclosure on cytokine/chemokine production following CSF-1 or LPS stimulation in wild-type versus SOD1 mutant primary microglial cells was examined in the following experiments.
Methods Treatment and Stimulation of Primary Microglial Cells
Primary mouse microglia were suspended at a concentration of 5×10^5 cells/mL and 100 μL of this cell suspension was added to each well of a 96-well plate. Microglia cells were allowed to rest overnight at 37° C., 5% CO2. […] Cells were then stimulated with 100 ng/mL recombinant mouse M-CSF for 30 minutes or 10 ng/mL lipopolysaccharide for 24 hours. After stimulation, the culture supernatant was removed from each well and aliquoted into two different 96-well plates for subsequent ELISA assays.
Culture supernatants were assayed with the Quantikine Mouse MCP-1 ELISA kit from R&D Systems (cat #SMJE00B). Samples were diluted 1:10 with Calibrator Diluent. Fifty microliters of Assay Diluent were first added to each well. Fifty microliters of Standards, Assay Control and diluted Sample were then added to the wells. The plate was mixed by gently tapping the frame, then sealed with an adhesive strip. The plate incubated for 2 hours at room temperature. […] After incubation, the acid stop solution was added to each well, and the plate was read on the ELISA plate reader at 450 nm.

[2H]c1nc2cccnc2n1Cc1cc(OC)c2c(c1)O[C@@H](C)[C@H](c1ccc(OC)nc1)O2 [Compound 6, 3-(((2S,3S)-8-methoxy-2-(6-methoxypyridin-3-yl)-3-methyl-2,3-dihydrobenzo[b][1,4]dioxin-6-yl)methyl)-3H-imidazo[4,5-b]pyridine-2-d]
IC50 (primary murine microglia; read-out: IC50 for DAPI (DAPI+ cell number)): 248 nM
IC50 (primary murine microglia; read-out: IC50 for Iba1 (Iba1+ area)): 84.6 nM
MCP-1 production [1]: significantly reduced MCP-1 production in a concentration dependent manner
